Data as given in ChEMBL document CHEMBL3259772, “Identification and characterization of small molecule modulators of the Epstein-Barr virus-induced gene 2 (EBI2) receptor” (J Med Chem, 2014).

Assays:
Format in all cases: ADME, organism-based
[1] = Terminal blood half life in C57BL/6 mouse at 1 mg/kg, iv administered as cassette dose; design: dose 1 mg/kg, route intravenous; conditions: read-out: beta t1/2 (converted)
[2] = AUC (infinity) in C57BL/6 mouse at 1 mg/kg, iv administered as cassette dose; design: time infinity, dose 1 mg/kg, route intravenous; conditions: plasma
Mus musculus = assay: Total blood clearance in C57BL/6 mouse at 1 mg/kg, iv administered as cassette dose; design: dose 1 mg/kg, route intravenous; conditions: in vivo
[3] = Apparent volume of distribution at steady state in C57BL/6 mouse at 1 mg/kg, iv administered as cassette dose; design: dose 1 mg/kg, route intravenous; conditions: in vivo, read-out: Vdss(app)
[4] = Cmax in C57BL/6 mouse at 5 mg/kg, po administered as cassette dose; design: dose 5 mg/kg, route oral; conditions: in vivo
[5] = Tmax in C57BL/6 mouse at 5 mg/kg, po administered as cassette dose; design: dose 5 mg/kg, route oral; conditions: in vivo
[6] = AUC (infinity) in C57BL/6 mouse at 5 mg/kg, po administered as cassette dose; design: time infinity, dose 5 mg/kg, route oral; conditions: plasma
[7] = Oral bioavailability in C57BL/6 mouse at 5 mg/kg administered as cassette dose; conditions: in vivo

Row | SMILES | half-life [1] | AUC(0-inf) [2] | CL (Mus musculus) | Vd [3] | Cmax [4] | Tmax [5] | AUC(0-inf) [6] | bioavailability [7]
1 | COc1ccc(/C=C/C(=O)N2CCN(C(=O)c3ccc(OC)cc3)CC2)cc1 | 0.2 h | 0.841 µM·h | 52 µL/min/mg | 0.8 L/kg | – | – | – | –
2 | COc1ccc(C(=O)N2CCN(C(=O)/C=C/c3ccc(Br)cc3)CC2)cc1 | 1.1 h | 2.44 µM·h | 16 µL/min/mg | 1.4 L/kg | 835 nM | 1 h | 3.61 µM·h | 49%
